Experimental data: US11656224B2, “Multivalent glycan microarray platform” (Z Biotech, LLC, priority 2016, dated 2023)

Experiments:
[1] = molecular target: T1, Soybean agglutinins (SBA) lectin (Glycine max, UniProt P05046); test: SBA lectin binding to O-mucin glycan microarray (NHS PAMAM G2 glass slide); conditions: SBA 1 μg/ml; O-mucin glycan microarray on glass; Cy3 labeled streptavidin
Experimental: For this purpose, a library containing 12 glycan probes representing 0-GalNAc glycan structures in mucin (Table 2) was immobilized onto a glass slide coated with PAMAM dendrimer (generation 2) terminated with NHS functional groups (Example 1). Each glycan was dissolved in a Print Buffer containing 150 mM sodium phosphate, (pH 8.5) with 100 μM concentration and printed onto the slides using ˜1 nL probe. The printing process was performed in 60% relative humidity. After printing the glycan immobilization can be enhanced by incubation at room temperature for 12 hours in 60% relative humidity.
The carbohydrate-protein interaction can be investigated by interrogating the microarray with lectins or glycan-binding proteins. In detail, first the arrayed slides were briefly rinsed in MilliQ water and then affixed into an assay chamber. The arrays were treated with a blocking buffer, such as 25 mM ethanolamine in 100 mM boric acid, 0.01% Tween 20 (pH 8.5). A biotinylated lectin (e.g., Helix pomatia Agglutinin (HPA)) or a glycan-binding protein dissolved in an Assay Buffer was subjected to the array for incubation. The Assay Buffer could be 20 mM Tris-HCl, 150 mM NaCl, 0.05% Tween 20, 1 mM CaCl2), 1 mM MgCl2, 1% BSA (pH 7.6). The protein-carbohydrate binding was detected by applying a Cy3 labeled streptavidin. The binding intensities—relative fluorescence units (RFU)—were quantified by using a fluorescence-based microarray scanner (FIG. 6).

[2] = molecular target: T1, Soybean agglutinins (SBA) lectin; test: SBA lectin binding to glycan array on polystyrene polymer slides; conditions: SBA 10 μg/ml, PAMAM G3 NHS, Cy5 labeled streptavidin
From the text: (§1) (PAMAM) dendrimer generation 3 functionalized with N-hydroxysuccinimide (NHS) groups (Example 5). The glycan array was fabricated same as described in Example 7. Biotinylated lectins (e.g., SBA, FIG. 7; PNA, FIG. 8; and ConA, FIG. 9) were used for examine the binding on the glycan array by detection with a Cy5 labeled streptavidin.

[3] = system: HIV broadly neutralizing antibody 2G12; test: 2G12 antibody binding to high-mannose N-glycans on hydrazide substrate with or without aniline; conditions: aniline-coated substrate
From the text: 2G12 is pre-complexed with Cy3 labeled anti-Human IgG (1:4 ratio). […] 2G12 is pre-complexed with Cy3 labeled anti-Human IgG (1:4 ratio). […] CD15 antibody is detected with Alexa Fluor 555-labeled anti-mouse IgM secondary antibody. […] The aniline can serve as a catalyst to increase aldehyde-hydrazide coupling efficiency, thus enhance the immobilization capability for glycans containing free reducing-end. The use of aniline as a nucleophilic catalyst accelerates bond formation through a Schiff base intermediate (mechanism in FIG. 4D).

[4] = molecular target: T2, peanut agglutinin (PNA) lectin (Arachis hypogaea, UniProt P02872); test: PNA lectin binding to glycan array on polystyrene polymer slides; conditions: PNA 10 μg/ml, PAMAM G3 NHS, Cy5 labeled streptavidin
T2 sequence (P02872 24-273): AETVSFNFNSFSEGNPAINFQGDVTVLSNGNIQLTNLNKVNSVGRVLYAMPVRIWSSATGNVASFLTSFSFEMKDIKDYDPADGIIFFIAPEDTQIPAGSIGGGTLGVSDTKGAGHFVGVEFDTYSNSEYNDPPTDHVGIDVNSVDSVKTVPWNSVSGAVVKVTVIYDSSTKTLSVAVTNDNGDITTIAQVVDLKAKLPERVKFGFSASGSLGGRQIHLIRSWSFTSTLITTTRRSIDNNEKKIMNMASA
From the text: as §1

T1 sequence (P05046 33-285): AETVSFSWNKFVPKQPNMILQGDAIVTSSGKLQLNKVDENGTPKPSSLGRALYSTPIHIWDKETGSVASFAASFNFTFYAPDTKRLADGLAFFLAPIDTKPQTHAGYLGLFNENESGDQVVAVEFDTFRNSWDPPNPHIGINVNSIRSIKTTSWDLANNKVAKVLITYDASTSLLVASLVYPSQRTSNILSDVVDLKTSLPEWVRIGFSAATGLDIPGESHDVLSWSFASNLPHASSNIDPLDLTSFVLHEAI

CC(=O)N[C@H]1[C@@H](OC[C@H](N)C(=O)O)O[C@H](CO)[C@H](O)[C@@H]1O [Tn-Ser, α-GalNAc-Ser]
binding to SBA lectin [1]: specific binding

H2N-TSAPDT*RPAP-NH2 (*α-GalNAc)
binding to SBA lectin [1]: specific binding

H2N-APGST*APP-NH2 (*α-GalNAc)
binding to SBA lectin [1]: specific binding
binding to SBA lectin [2]: specific binding

CC(=O)N[C@H]1[C@@H](O[C@H](C)[C@H](N)C(=O)O)O[C@H](CO)[C@H](O)[C@@H]1O [Tn-Thr, α-GalNAc-Thr]
binding to SBA lectin [1]: specific binding
binding to SBA lectin [2]: specific binding

[Manα1-2] [Manα1-2] Manα1-6(Manα1-3)Manα1-6(Manα1-2Manα1-3)Manβ1-4GlcNAcβ1-4GlcNAc-(3 isomers) [Glycan 90]
binding to 2G12 antibody [3]: specific binding

CC(=O)NC1C(OC(C)C(N)C(=O)O)OC(CO)C(O)C1OC1OC(CO)C(O)C(O)C1O (stereo not drawn) [T-Thr, Galβ1-3GalNAcα1-Thr]
binding to PNA lectin [4]: specific binding

CC(=O)NC1C(OCC(N)C(=O)O)OC(CO)C(O)C1OC1OC(CO)C(O)C(O)C1O (stereo not drawn) [T-Ser, Galβ1-3GalNAcα1-Ser]
binding to PNA lectin [4]: specific binding
